We go through four compounds from US20090022670A1, “NOVEL COMPOUNDS” (priority 2007, published 2009).

One experiment concerns the target T1, rat Orexin-1 receptor (Rattus norvegicus, UniProt P56718).
T1 construct: expressed in transfected cells
T1 sequence (P56718 1-416): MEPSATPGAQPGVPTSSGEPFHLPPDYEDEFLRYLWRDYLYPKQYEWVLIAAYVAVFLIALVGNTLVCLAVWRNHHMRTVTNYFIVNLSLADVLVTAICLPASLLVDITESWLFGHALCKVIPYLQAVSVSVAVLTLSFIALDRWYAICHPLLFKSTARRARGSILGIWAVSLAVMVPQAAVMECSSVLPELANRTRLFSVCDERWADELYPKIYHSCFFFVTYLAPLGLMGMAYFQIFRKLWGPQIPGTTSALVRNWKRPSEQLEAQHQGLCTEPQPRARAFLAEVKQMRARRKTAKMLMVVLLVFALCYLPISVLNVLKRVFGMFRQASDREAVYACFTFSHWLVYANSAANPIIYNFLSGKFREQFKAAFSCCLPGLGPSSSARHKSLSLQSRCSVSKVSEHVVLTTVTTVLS
Nature of the experiment: FLIPR antagonist affinity at cloned rat OX1 receptor (RBL cells). It is filed as cell-based. Conditions: read-out: fpKi. The source says: (§1) Determination of Antagonist Affinity at Human Orexin-1 and 2 Receptors Using FLIPR
(§2) Adherent Chinese Hamster Ovary (CHO) cells, stably expressing the recombinant human Orexin-1 or human Orexin-2 receptors or Rat Basophilic Leukaemia Cells (RBL) stably expressing recombinant rat Orexin-1 or rat Orexin-2 receptors were maintained in culture in Alpha Minimum Essential Medium (Gibco/Invitrogen, cat. no.; 22571-020), supplemented with 10% decomplemented foetal bovine serum (Life Technologies, cat. no. 10106-078) and 400 μg/mL Geneticin G418 (Calbiochem, cat. no. 345810). Cells were grown as monolayers under 95%:5% air:CO2 at 37° C. […]
(§3) Compounds of the invention were tested in a final assay concentration range from 1.66×10^−5M to 1.58×10^−11 M. Compounds of the invention were dissolved in dimethylsulfoxide (DMSO) at a stock concentration of 10 mM. […] This final concentration of hOrexin A was equivalent to the calculated EC80 for hOrexinA agonist potency in this test system. […]
(§4) The loaded cells were then incubated for 10 min at 37° C. with test compound. The plates were then placed into a FLIPR™ (Molecular Devices, UK) to monitor cell fluorescence (λex=488 nm, λEM=540 nm) (Sullivan E, Tucker E M, Dale I L. Measurement of [Ca^2+]i using the fluometric imaging plate reader (FLIPR). In: Lambert DG (ed.), Calcium Signaling Protocols. New Jersey: Humana Press, 1999, 125-136). […]

The target of the next experiment is T2, rat Orexin-2 receptor (Rattus norvegicus, UniProt P56719).
T2 construct: expressed in transfected cells
T2 sequence (P56719 1-460): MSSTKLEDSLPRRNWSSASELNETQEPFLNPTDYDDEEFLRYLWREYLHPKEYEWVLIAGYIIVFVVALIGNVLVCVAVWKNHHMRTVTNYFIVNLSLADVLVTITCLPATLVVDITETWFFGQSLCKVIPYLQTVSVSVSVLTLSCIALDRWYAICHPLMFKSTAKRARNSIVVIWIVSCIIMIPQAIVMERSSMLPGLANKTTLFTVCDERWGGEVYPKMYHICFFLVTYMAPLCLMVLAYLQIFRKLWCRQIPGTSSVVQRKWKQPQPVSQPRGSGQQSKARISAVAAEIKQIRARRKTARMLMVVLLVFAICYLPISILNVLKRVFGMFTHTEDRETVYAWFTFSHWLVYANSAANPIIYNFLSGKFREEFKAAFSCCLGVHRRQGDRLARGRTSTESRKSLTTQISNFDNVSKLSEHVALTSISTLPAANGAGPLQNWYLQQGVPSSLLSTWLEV
Nature of the experiment: FLIPR antagonist affinity at cloned rat OX2 receptor (RBL cells). The experiment is classed as cell-based. Conditions: read-out: fpKi.
Text: as §1, §2, §3, §4

Experiment [1] has as its system rats. Conditions: cited from earlier work.
Experiment [2] relates to rats. Particulars: cited from earlier work. The source holds these as a separate data set.
Another experiment concerns freely-feeding rats. Particulars: central administration, 4 hour time period; cited from earlier work.
Experiment [3] relates to rats. Conditions: central administration at the onset of the normal sleep period; cited from earlier work.

pKi: −log10 of the molar value. No end group written: not given here.

Take `Cc1nc(C(=O)N2CCCC[C@H]2Cc2cn3cccc(F)c3n2)c(-c2ccccc2)s1` [Example 13, 8-fluoro-2-({(2S)-1-[(2-methyl-5-phenyl-1,3-thiazol-4-yl)carbonyl]-2-piperidinyl}methyl)imidazo[1,2-a]pyridine]: the pKi on rat Orexin-1 receptor is 8.30 to 9.00; on rat Orexin-2 receptor, 9.00 to 9.50.
For `Cc1nc(C(=O)N2CCCC[C@H]2Cc2cn3cc(F)cc(C)c3n2)c(-c2ccccc2)s1` [Example 31, 6-fluoro-8-methyl-2-({(2S)-1-[(2-methyl-5-phenyl-1,3-thiazol-4-yl)carbonyl]-2-piperidinyl}methyl)imidazo[1,2-a]pyridine] the same measures were 8.30 to 9.00 and 9.00 to 9.50.
Regarding `Cc1nc2ccc(NC(=O)Nc3ccnc4cccnc34)cc2o1` [SB334867], the hedonic eating entry with rats [1] was “potently reduced”. In addition, in the experiment on rats [2], the high-fat pellet self-administration entry is “attenuated”.
With “orexin-A: ligand for the orexin-1 receptor; an agonist of the orexin receptors (QPLPDCCRQKTCSCRLYELLHGAGNHAAGILTL; ends and bridges not checked; cysteine pairing not given here; UniProt O43612 34-66, looked up)”, the “increase of food intake over control rats receiving vehicle” value in the experiment on freely-feeding rats is recorded as “approximately four-fold”. The arousal entry in the experiment on rats [3] is listed as “dose-related increase”.
